Our source for the IC50 values is EP4678644A1, “SUBSTITUTED DIHYDROTHIENOPYRIMIDINE COMPOUND, PREPARATION METHOD THEREFOR, AND USE THEREOF” (Shanghai Yidi Biotechnology Co., Ltd., priority 2023, dated 2024).

One experiment addresses PDE4D2 (Homo sapiens, UniProt Q08499). In words: PDE4D2 enzyme experiment (AMP-glo, cAMP substrate). It counts as biochemical. The note with it: read-out: PDE4D2 IC50 Binding. The text has this:
Inhibition rate % ^= (1 - (RLUpositive control - RLUcompound)/(RLUpositive control - RLUnegative control)) * 100.

The target of experiment [1] is T1, PDE4B2 (Homo sapiens, UniProt Q07343).
T1 construct: expressed in transfected cells; host or cells: Flp-In-293 (Flpin-293-PDE4B2 [sic])
Kind of experiment: PDE4B2 cell experiment (cAMP, Eu-cAMP tracer / Ulight-anti-cAMP). In kind it is cell-based. As to conditions: Flpin-293-PDE4B2 cells, Foskolin.

Experiment [2] addresses T1, PDE4B2. In words: PDE4B2 enzyme experiment (AMP-glo, cAMP substrate). In kind it is biochemical.
Protocol: All compounds were dissolved in DMSO into 10 mM or 20 mM stock solutions. The compound to be tested was diluted with DMSO in a 3-fold gradient. 20 nL/well of the compound or a DMSO control was transferred to a 384-well plate by using Echo 550 instrument. The plate was sealed with a membrane and centrifuged for 1 minute. A 2x enzyme solution was prepared with an assay buffer, and 2 uL/well of the 2x enzyme solution was added, followed by equilibration at room temperature for 10 minutes. A 2x Cyclic-3',5'-AMP substrate solution was prepared with an assay buffer, and 2 uL/well of the 2x substrate solution was added, followed by incubation at room temperature for 60 minutes. 4 uL of AMP-glo reagent was added, followed by incubation at room temperature for 60 minutes. 8 ul of an AMP detection solution was added, followed by incubation at room temperature for 60 minutes. An RLU value was read on Envision 2105 plate reader. The RLU value represents the concentration of the product AMP. Inhibition rate % ^= (1 - (RLUpositive control - RLUcompound)/(RLUpositive control - RLUnegative control)) * 100. The IC50 value was then caulculated by Graphpad 8.0 software using Y = Bottom + (Top - Bottom)/(1 + 10^((LogIC50 - X) * HillSlope)).

T1 sequence (Q07343 1-564 isoform Q07343-2): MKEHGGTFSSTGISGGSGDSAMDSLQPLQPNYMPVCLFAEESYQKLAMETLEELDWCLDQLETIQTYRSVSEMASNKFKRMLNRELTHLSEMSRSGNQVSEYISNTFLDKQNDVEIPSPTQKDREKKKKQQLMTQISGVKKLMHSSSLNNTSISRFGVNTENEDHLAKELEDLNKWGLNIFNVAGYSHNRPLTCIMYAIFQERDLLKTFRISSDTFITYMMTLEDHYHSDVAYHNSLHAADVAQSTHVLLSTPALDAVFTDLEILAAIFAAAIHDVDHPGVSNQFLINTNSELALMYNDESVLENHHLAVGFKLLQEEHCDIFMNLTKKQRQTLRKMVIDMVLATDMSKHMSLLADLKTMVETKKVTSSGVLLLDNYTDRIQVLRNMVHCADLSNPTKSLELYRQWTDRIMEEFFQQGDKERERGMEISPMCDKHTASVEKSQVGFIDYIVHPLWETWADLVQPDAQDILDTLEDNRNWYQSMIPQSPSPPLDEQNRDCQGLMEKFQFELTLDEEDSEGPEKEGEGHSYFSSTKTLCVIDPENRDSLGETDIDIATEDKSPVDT
Chain of PDE4D2 (Q08499 303-809 limits assumed): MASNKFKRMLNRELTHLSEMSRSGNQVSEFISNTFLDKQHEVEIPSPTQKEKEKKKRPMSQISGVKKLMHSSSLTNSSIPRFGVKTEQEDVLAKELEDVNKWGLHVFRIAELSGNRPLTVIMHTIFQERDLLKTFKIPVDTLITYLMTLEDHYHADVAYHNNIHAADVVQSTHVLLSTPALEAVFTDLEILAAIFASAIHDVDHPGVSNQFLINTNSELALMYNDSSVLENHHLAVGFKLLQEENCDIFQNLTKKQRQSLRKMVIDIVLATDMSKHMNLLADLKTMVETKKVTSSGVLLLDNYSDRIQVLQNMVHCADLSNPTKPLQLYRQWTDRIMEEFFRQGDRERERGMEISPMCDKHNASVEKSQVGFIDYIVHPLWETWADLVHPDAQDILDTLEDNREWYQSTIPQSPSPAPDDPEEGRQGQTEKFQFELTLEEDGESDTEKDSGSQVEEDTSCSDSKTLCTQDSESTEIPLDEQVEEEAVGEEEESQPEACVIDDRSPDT

For the molecule `[O-][S+]1CCc2nc(N3Cc4nn5cc(Cl)cnc5c4C3)nc(NC3(CO)CCC3)c21` (stereo not shown) [Compound 2], the IC50 was 60.1 nM at PDE4D2, 418 nM against PDE4B2 [1] and 19.3 nM on PDE4B2 [2].

As for `[O-][S@+]1CCc2nc(N3CCc4nn5cc(Cl)cnc5c4C3)nc(NC3(CO)CCC3)c21` [Compound 4], the figures for the IC50 on PDE4D2, on PDE4B2 [1] and against PDE4B2 [2] were 7.25 nM, 29.6 nM and 2.71 nM, respectively.

Consider `[O-][S@+]1CCc2nc(N3CCn4c(nc5ccc(Cl)cc54)C3)nc(NC3(CO)CCC3)c21` [Compound 6, (R)-2-(7-chloro-3,4-dihydrobenzo[4,5]imidazo[1,2-a]pyrazin-2(1H)-yl)-4-((1-(hydroxymethyl)cyclobutyl)amino)-6,7-dihydrothieno[3,2-d]pyrimidine 5-oxide], for which the results for the IC50 on PDE4D2, on PDE4B2 [1] and against PDE4B2 [2] were 0.473 nM, 8.2 nM and 0.41 nM, respectively.

As for `[O-][S@+]1CCc2nc(N3CC[C@@H]4c5ccc(Cl)cc5OC[C@H]4C3)nc(NC3(CO)CCC3)c21` [Compound 14, (R)-2-((4aR,10bS)-8-chloro-1,4a,5,10b-tetrahydro-2H-chromeno[3,4-c]pyridin-3(4H)-yl)-4-((1-(hydroxymethyl)cyclobutyl)amino)-6,7-dihydrothieno[3,2-d]pyrimidine 5-oxide], the IC50 on PDE4D2 was found to be 1.08 nM; against PDE4B2 [1] it was 16.5 nM; against PDE4B2 [2], 0.21 nM.

In the case of `[O-][S+]1CCc2nc(N3CCc4ncsc4C3)nc(NC3(CO)CCC3)c21` (stereo not shown) [Compound 15], the figures for the IC50 on PDE4D2, on PDE4B2 [1] and against PDE4B2 [2] were 28.6 nM, 150 nM and 20.4 nM, respectively.

With `Cc1nc2c(s1)CN(c1nc3c(c(NC4(CO)CCC4)n1)[S+]([O-])CC3)CC2` (stereo not shown) [Compound 16], the IC50 on PDE4D2 turned out to be 17.3 nM; against PDE4B2 [1], 78 nM; on PDE4B2 [2], 10.7 nM.

Take `C[C@@H]1c2ccc(Cl)cc2CCN1c1nc2c(c(NC3(CO)CCC3)n1)[S@+]([O-])CC2` [Compound 29]: the IC50 on PDE4D2 is 1.79 nM; at PDE4B2 [2], 0.54 nM.

As to `[O-][S@+]1CCc2nc(N3CCc4nc(N5CCC5)sc4C3)nc(NC3(CO)CCC3)c21` [Compound 64, (R)-2-(2-(azetidin-1-yl)-6,7-dihydrothiazolo[5,4-c]pyridin-5(4H)-yl)-4-((1-(hydroxymethyl)cyclobutyl)amino)-6,7dihydrothieno[3,2-d]pyrimidine 5-oxide], the concentration for half-maximal inhibition (IC50) on PDE4D2 stood at 3.46 nM.

As to `[O-][S@+]1CCc2nc(N3CCc4cc(-c5nccs5)ccc4C3)nc(NC3(CO)CCC3)c21` [Compound 65, (R)-4-((1-(hydroxymethyl)cyclobutyl)amino)-2-(6-(thiazol-2-yl)-3,4-dihydroisoquinolin-2(1H)-yl)-6,7-dihydrothieno[3,2-d]pyrimidine 5-oxide], at PDE4D2, the IC50 is 0.0931 nM.

In the case of `[O-][S@+]1CCc2nc(N3CCc4cc(C5CC5)ccc4C3)nc(NC3(CO)CCC3)c21` [Compound 66, (R)-2-(6-cyclopropyl-3,4-dihydroisoquinolin-2(1H)-yl)-4-((1-(hydroxymethyl)cyclobutyl)amino)-6,7-dihydrothieno[3,2-d]pyrimidine 5-oxide], the IC50 on PDE4D2 is 1.13 nM.

As for `[O-][S@+]1CCc2nc(N3CCc4c(sc5ccc(F)cc45)C3)nc(NC3(CO)CCC3)c21` [Compound 69, (R)-2-(6-fluoro-3,4-dihydrobenzo[4,5]thieno[2,3-c]pyridin-2(1H)-yl)-4-((1-(hydroxymethyl)cyclobutyl)amino)-6,7-dihydrothieno[3,2-d]pyrimidine 5-oxide], the IC50 on PDE4D2 is 0.276 nM.

Take `[O-][S@+]1CCc2nc(N3CCc4c(cnc5cc(Cl)ccc45)C3)nc(NC3(CO)CCC3)c21` [Compound 72, (R)-2-(8-chloro-1,4-dihydrobenzo[c][2,7]naphthyridin-3(2H)-yl)-4-((1-(hydroxymethyl)cyclobutyl)amino)-6,7-dihydrothieno[3,2-d]pyrimidine 5-oxide]: the half-maximal inhibitory concentration (IC50) at PDE4D2 worked out at 0.587 nM.

As for `[O-][S@+]1CCc2nc(N3CCc4c(c(Cl)nc5cc(Cl)ccc45)C3)nc(NC3(CO)CCC3)c21` [Compound 73, (R)-2-(5,8-dichloro-1,4-dihydrobenzo[c][2,7]naphthyridin-3(2H)-yl)-4-((1-(hydroxymethyl)cyclobutyl)amino)-6,7-dihydrothieno[3,2-d]pyrimidine 5-oxide], the IC50 at PDE4D2 was 0.958 nM.

Turning to `CNc1nc2cc(Cl)ccc2c2c1CN(c1nc3c(c(NC4(CO)CCC4)n1)[S@+]([O-])CC3)CC2` [Compound 74, (R)-2-(8-chloro-5-(methylamino)-1,4-dihydrobenzo[c][2,7]naphthyridin-3(2H)-yl)-4-((1-(hydroxymethyl)cyclobutyl)amino)-6,7-dihydrothieno[3,2-d]pyrimidine 5-oxide], the IC50 on PDE4D2 is 1.09 nM.

Regarding `Cn1nccc1-c1ccc2c(c1)CCN(c1nc3c(c(NC4(CO)CCC4)n1)[S@+]([O-])CC3)C2` [Compound 76, (R)-4-((1-(hydroxymethyl)cyclobutyl)amino)-2-(6-(1-methyl-1H-pyrazol-5-yl)-3,4-dihydroisoquinolin-2(1H)-yl)-6,7-dihydrothieno[3,2-d]pyrimidine 5-oxide], on PDE4D2, the IC50 worked out at 0.089 nM.

For the molecule `O=C1OCCN1c1ccc2c(c1)CCN(c1nc3c(c(NC4(CO)CCC4)n1)[S@+]([O-])CC3)C2` [Compound 80, (R)-3-(2-(4-((1-(hydroxymethyl)cyclobutyl)amino)-5-oxido-6,7-dihydrothieno[3,2-d]pyrimidin-2-yl)-1,2,3,4-tetrahydroisoquinolin-6-yl)oxazolidin-2-one], the IC50 at PDE4D2 is 0.56 nM.

As to `Cn1ncc2c3c(cnc21)CN(c1nc2c(c(NC4(CO)CCC4)n1)[S@+]([O-])CC2)CC3` [Compound 104, (R)-4-((1-(hydroxymethyl)cyclobutyl)amino)-2-(3-methyl-3,6,8,9-tetrahydro-7H-pyrazolo[3,4-c][2,7]naphthyridin-7-yl)-6,7-dihydrothieno[3,2-d]pyrimidine 5-oxide], the IC50 on PDE4D2 was determined as 2.94 nM.

On to `[O-][S@+]1CCc2nc(N3CCc4nc(N5CCCC5)ccc4C3)nc(NC3(CO)CCC3)c21` [Compound 135, (R)-4-((1-(hydroxymethyl)cyclobutyl)amino)-2-(2-(pyrrolidin-1-yl)-7,8-dihydro-1,6-naphthyridin-6(5H)-yl)-6,7-dihydrothieno[3,2-d]pyrimidine 5-oxide], for which the IC50 on PDE4D2 turned out to be 3.38 nM.

Consider `[O-][S@+]1CCc2nc(N3CCc4c(ccc(N5CCCC5)c4F)C3)nc(NC3(CO)CCC3)c21` [Compound 180, (R)-2-(5-fluoro-6-(pyrrolidin-1-yl)-3,4-dihydroisoquinolin-2(1H)-yl)-4-((1-(hydroxymethyl)cyclobutyl)amino)-6,7-dihydrothieno[3,2-d]pyrimidine 5-oxide], for which, on PDE4D2, the IC50 was found to be 6.38 nM.

Take `[O-][S@+]1CCc2nc(N3CCc4cc(N5CCCC5)c(F)cc4C3)nc(NC3(CO)CCC3)c21` [Compound 181, (R)-2-(7-fluoro-6-(pyrrolidin-1-yl)-3,4-dihydroisoquinolin-2(1H)-yl)-4-((1-(hydroxymethyl)cyclobutyl)amino)-6,7-dihydrothieno[3,2-d]pyrimidine 5-oxide]: the IC50 at PDE4D2 stood at 0.876 nM.

On to `[O-][S@+]1CCc2nc(N3CCc4nc(N5CCCC5)cnc4C3)nc(NC3(CO)CCC3)c21` [Compound 218, (R)-4-((1-(hydroxymethyl)cyclobutyl)amino)-2-(2-(pyrrolidin-1-yl)-7,8-dihydropyrido[3,4-b]pyrazin-6(5H)-yl)-6,7-dihydrothieno[3,2-d]pyrimidine 5-oxide], for which the IC50 on PDE4D2 was found to be 1.88 nM.
